Laboratory results reported in patent publication US20100298141A1, “SUBSTITUTED PYRIDINE N-OXIDE HERBICIDES” (E. I. DU PONT DE NEMOURS AND COMPANY, priority 2007, published 2010).

How the values were obtained:
johnsongrass = test: Test C pre-/postemergence test; format: in vivo, Sorghum halepense
Source text: (§1) Seeds of plant species selected from blackgrass (Alopecurus myosuroides), downy brome (Bromus tectorum), green foxtail (Setaria viridis), Italian ryegrass (Lolium multiflorum), wheat (Triticum aestivum), wild oat (Avena fatua), catchweed bedstraw (Galium aparine), Russian thistle (Salsola kali), […] (Cynodon dactylon), Surinam grass (Brachiaria decumbens), cocklebur (Xanthium strumarium), corn (Zea mays), crabgrass (Digitaria sanguinalis), woolly cupgrass (Eriochloa villosa), giant foxtail (Setaria faberii), Goosegrass (Eleusin indica), johnsongrass (Sorghum halepense), kochia (Kochia scoparia), lambsquarters (Chenopodium album), morningglory (Ipomoea coccinea), eastern black nightshade (Solanum ptycanthum), yellow nutsedge (Cyperus esculentus), pigweed (Amaranthus retroflexus), common ragweed (Ambrosia elation), soybean (Glycine max), common (oilseed) sunflower (Helianthus annuus), and velvetleaf (Abutilon theophrasti) were planted and treated preemergence with test chemicals formulated in a non-phytotoxic solvent mixture which included a surfactant. At the same time, plants selected from these crop and weed species and also winter barley (Hordeum vulgare), canarygrass (Phalaris minor), and chickweed (Stellaria media) were treated with postemergence applications of some of the test chemicals formulated in the same manner. Plants ranged in height from 2 to 18 cm (1- to 4-leaf stage) for postemergence treatments. […] At time of treatment, test pots were flooded to 3 cm above the soil surface, treated by application of test compounds directly to the paddy water, and then maintained at that water depth for the duration of the test. […] A dash (-) response means no test result.

duck salad = test: Test C flooded paddy test; format: in vivo, Heteranthera limosa; details: Flood, 62 g ai/ha; scale 0 to 100 (0 no effect, 100 complete control)
Procedure, shortened: (§2)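 Under a constant 3 cm flood, test compounds went directly into the paddy water. Following 13 to 15 days of greenhouse growth, treated species and controls were compared by eye.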

velvetleaf [1] = test: Test C pre-/postemergence test; format: in vivo, Abutilon theophrasti
Source text: as §1

bermudagrass = test: Test C pre-/postemergence test; format: in vivo, Cynodon dactylon
Source text: as §1

corn = test: Test A pre-/postemergence greenhouse test; format: in vivo, Zea mays; details: for Plant response rating, Corn: 0 to 100 scale where 0 is no effect and 100 is complete control; for Corn plant response rating: 0 to 100 scale
Procedure, shortened: (§3)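 Pre: directed soil spray on seeded loam/sand. Post: foliar spray, plants 2–10 cm, 1–2 leaf stage, applied concurrently. Vehicle: non-phytotoxic solvent + surfactant. Greenhouse ~10 d; visual injury rating vs untreated controls.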

rice = test: Test C flooded paddy test; format: in vivo, Oryza sativa; details: Flood, 62 g ai/ha; scale 0 to 100 (0 no effect, 100 complete control)
Procedure, shortened: as §2

Goosegrass = test: Test C pre-/postemergence test; format: in vivo, Eleusin indica
Source text: as §1

common ragweed = test: Test C pre-/postemergence test; format: in vivo, Ambrosia elation
Source text: as §1

lambsquarters = test: Test C pre-/postemergence test; format: in vivo, Chenopodium album; details: Postemergence; for Plant response rating, Lambsquarters: scale 0 to 100, 0 no effect, 100 complete control
Source text: as §1

wheat = test: Test A pre-/postemergence greenhouse test; format: in vivo, Triticum aestivum; details: for Plant response rating, Wheat: 0 to 100 scale where 0 is no effect and 100 is complete control; for Wheat plant response rating: 0 to 100 scale
Procedure, shortened: as §3

redroot pigweed = test: Test A pre-/postemergence greenhouse test; format: in vivo, Amaranthus retroflexus; details: for Plant response rating, Pigweed: 0 to 100 scale where 0 is no effect and 100 is complete control; for Pigweed plant response rating: 0 to 100 scale
Procedure, shortened: as §3

giant foxtail [2] = test: Test C pre-/postemergence test; format: in vivo, Setaria faberii
Source text: as §1

Surinam grass = test: Test C pre-/postemergence test; format: in vivo, Brachiaria decumbens
Source text: as §1

wild oat = test: Test C pre-/postemergence test; format: in vivo, Avena fatua
Source text: as §1

giant foxtail [3] = test: Test A pre-/postemergence greenhouse test; format: in vivo, Setaria faberi; details: for Plant response rating, Foxtail, Giant: 0 to 100 scale where 0 is no effect and 100 is complete control; for Foxtail, Giant plant response rating: 0 to 100 scale
Procedure, shortened: as §3

velvetleaf [4] = test: Test A pre-/postemergence greenhouse test; format: in vivo, Abutilon theophrasti; details: for Plant response rating, Velvetleaf: 0 to 100 scale where 0 is no effect and 100 is complete control; for Velvetleaf plant response rating: 0 to 100 scale
Procedure, shortened: as §3

[5] = 62 g ai/ha, Preemergence, scale 0 to 100
[6] = 125 g ai/ha, preemergence, scale 0 (no effect) to 100 (complete control)
[7] = Postemergence, 62 g ai/ha, scale 0 to 100, 0 no effect, 100 complete control
[8] = Postemergence, 125 g ai/ha, scale 0 to 100, 0 no effect, 100 complete control
[9] = Postemergence, 250 g ai/ha, scale 0 to 100, 0 no effect, 100 complete control
[10] = Preemergence, 31 g ai/ha, scale 0 to 100 (0 no effect, 100 complete control)
[11] = preemergence, 250 g ai/ha, scale 0 (no effect) to 100 (complete control)
[12] = Postemergence, 500 g ai/ha, 0 is no effect, 100 is complete control
[13] = Preemergence, 125 g ai/ha, 0 no effect, 100 complete control

## Cn1nc(C(F)(F)F)c(C[S+]([O-])c2ccc(F)c[n+]2[O-])c1OCC(F)(F)F (centres unmarked) [Compound 67]
johnsongrass; [5]
  Johnsongrass plant response rating: 70
johnsongrass; [6]
  Johnsongrass plant response rating: 80
johnsongrass; Postemergence, 31 g ai/ha
  Plant response rating (0 to 100), Johnsongrass: 0
johnsongrass; [7]
  Plant response rating, Johnsongrass: 0
johnsongrass; [8]
  Plant response rating, Johnsongrass: 0
johnsongrass; [9]
  Plant response rating, Johnsongrass: 0
johnsongrass; [10]
  Plant response rating, Johnsongrass: 65
johnsongrass; [11]
  Johnsongrass plant response rating: 85
Duck salad
  Plant response rating, Ducksalad: 100
Velvetleaf [1]; [5]
  Velvetleaf plant response rating: 85
Velvetleaf [1]; [6]
  Velvetleaf plant response rating: 100
Velvetleaf [1]; Postemergence, 31 g ai/ha
  Plant response rating (0 to 100), Velvetleaf: 0
Velvetleaf [1]; Postemergence, 62 g ai/ha
  Plant response rating (0 to 100), Velvetleaf: 0
Velvetleaf [1]; [8]
  Plant response rating, Velvetleaf: 30
Velvetleaf [1]; [9]
  Plant response rating, Velvetleaf: 35
Velvetleaf [1]; [10]
  Plant response rating, Velvetleaf: 75
Velvetleaf [1]; [11]
  Velvetleaf plant response rating: 100
bermudagrass; 62 g ai/ha, Preemergence, scale 0 to 100 (0 no effect, 100 complete control)
  Bermudagrass plant response rating: 100
bermudagrass; [6]
  Bermudagrass plant response rating: 100
bermudagrass; Postemergence, 31 g ai/ha
  Plant response rating (0 to 100), Bermudagrass: 0
bermudagrass; [7]
  Plant response rating, Bermudagrass: 0
bermudagrass; [8]
  Plant response rating, Bermudagrass: 0
bermudagrass; [9]
  Plant response rating, Bermudagrass: 70
bermudagrass; [10]
  Plant response rating, Bermudagrass: 90
bermudagrass; [11]
  Bermudagrass plant response rating: 100
corn; Postemergence, 125 g ai/ha
  Plant response rating, Corn: 60
corn; [12]
  Corn plant response rating: 90
corn; [13]
  Corn plant response rating: 0
corn; Preemergence, 500 g ai/ha
  Plant response rating, Corn: 80
rice
  Plant response rating, Rice: 60
Goosegrass; [5]
  Goosegrass plant response rating: 100
Goosegrass; [6]
  Goosegrass plant response rating: 100
Goosegrass; Postemergence, 31 g ai/ha
  Plant response rating (0 to 100), Goosegrass: 0
Goosegrass; [7]
  Plant response rating, Goosegrass: 0
Goosegrass; [8]
  Plant response rating, Goosegrass: 50
Goosegrass; [9]
  Plant response rating, Goosegrass: 90
Goosegrass; [10]
  Plant response rating, Goosegrass: 100
Goosegrass; [11]
  Goosegrass plant response rating: 100
Common ragweed; [5]
  Ragweed plant response rating: 100
Common ragweed; [6]
  Ragweed plant response rating: 100
Common ragweed; Postemergence, 31 g ai/ha
  Plant response rating (0 to 100), Ragweed: 0
Common ragweed; Postemergence, 62 g ai/ha
  Plant response rating (0 to 100), Ragweed: 0
Common ragweed; [8]
  Plant response rating, Ragweed: 50
Common ragweed; [9]
  Plant response rating, Ragweed: 55
Common ragweed; [10]
  Plant response rating, Ragweed: 100
Common ragweed; [11]
  Ragweed plant response rating: 100
lambsquarters; 31 g ai/ha
  Plant response rating (0 to 100), Lambsquarters: 0
lambsquarters; 62 g ai/ha
  Plant response rating, Lambsquarters: 0
lambsquarters; 125 g ai/ha
  Plant response rating, Lambsquarters: 0
lambsquarters; 250 g ai/ha
  Plant response rating, Lambsquarters: 10
wheat; Postemergence, 125 g ai/ha
  Plant response rating, Wheat: 60
wheat; [12]
  Wheat plant response rating: 70
wheat; [13]
  Wheat plant response rating: 60
wheat; Preemergence, 500 g ai/ha
  Plant response rating, Wheat: 100
Redroot pigweed; Postemergence, 125 g ai/ha
  Plant response rating, Pigweed: 80
Redroot pigweed; [12]
  Pigweed plant response rating: 100
Redroot pigweed; [13]
  Pigweed plant response rating: 100
Redroot pigweed; Preemergence, 500 g ai/ha
  Plant response rating, Pigweed: 100
Giant foxtail [2]; [5]
  Foxtail, Giant plant response rating: 100
Giant foxtail [2]; [6]
  Foxtail, Giant plant response rating: 100
Giant foxtail [2]; Postemergence, 31 g ai/ha
  Plant response rating (0 to 100), Foxtail, Giant: 0
Giant foxtail [2]; [7]
  Plant response rating, Foxtail, Giant: 0
Giant foxtail [2]; [8]
  Plant response rating, Foxtail, Giant: 40
Giant foxtail [2]; [9]
  Plant response rating, Foxtail, Giant: 70
Giant foxtail [2]; [10]
  Plant response rating, Foxtail, Giant: 80
Giant foxtail [2]; [11]
  Foxtail, Giant plant response rating: 100
Surinam grass; [5]
  Surinam Grass plant response rating: 100
Surinam grass; [6]
  Surinam Grass plant response rating: 100
Surinam grass; Postemergence, 31 g ai/ha
  Plant response rating (0 to 100), Surinam Grass: 0
Surinam grass; Postemergence, 62 g ai/ha
  Plant response rating (0 to 100), Surinam Grass: 0
Surinam grass; [8]
  Plant response rating, Surinam Grass: 30
Surinam grass; [9]
  Plant response rating, Surinam Grass: 45
Surinam grass; [10]
  Plant response rating, Surinam Grass: 85
Surinam grass; [11]
  Surinam Grass plant response rating: 100
Wild oat; [5]
  Oat, Wild plant response rating: 80
Wild oat; [6]
  Oat, Wild plant response rating: 98
Wild oat; Postemergence, 31 g ai/ha
  Plant response rating (0 to 100), Oat, Wild: 10
Wild oat; [7]
  Plant response rating, Oat, Wild: 20
Wild oat; [9]
  Plant response rating, Oat, Wild: 60
Wild oat; [10]
  Plant response rating, Oat, Wild: 80
Wild oat; [11]
  Oat, Wild plant response rating: 100
Giant foxtail [3]; Postemergence, 125 g ai/ha
  Plant response rating, Foxtail, Giant: 90
Giant foxtail [3]; [12]
  Foxtail, Giant plant response rating: 100
Giant foxtail [3]; [13]
  Foxtail, Giant plant response rating: 100
Giant foxtail [3]; Preemergence, 500 g ai/ha
  Plant response rating, Foxtail, Giant: 100
Velvetleaf [4]; Postemergence, 125 g ai/ha
  Plant response rating, Velvetleaf: 60
Velvetleaf [4]; [12]
  Velvetleaf plant response rating: 90
Velvetleaf [4]; [13]
  Velvetleaf plant response rating: 90
Velvetleaf [4]; Preemergence, 500 g ai/ha
  Plant response rating, Velvetleaf: 100
